Patent US20220073496A1, “NOVEL QUINOLINE DERIVATIVE INHIBITOR” (Nanjing Transthera Biosciences Co., Ltd., priority 2018, published 2022)
Like-named read-outs stand apart in the source and are kept apart here.

Experiments:
H1299 cell pAxl = target: T1, H1299 cell pAxl (Homo sapiens, UniProt P30530); assay: Inhibitory activity on the cell pAxl (Western Blot); format: cell-based; settings: H1299 cells, compound 1.1, 3.3, 10, 30 nM, hGAS6 200 ng/mL
T1 construct: endogenous in cells; host or cells: H1299
T1 sequence (P30530 26-894): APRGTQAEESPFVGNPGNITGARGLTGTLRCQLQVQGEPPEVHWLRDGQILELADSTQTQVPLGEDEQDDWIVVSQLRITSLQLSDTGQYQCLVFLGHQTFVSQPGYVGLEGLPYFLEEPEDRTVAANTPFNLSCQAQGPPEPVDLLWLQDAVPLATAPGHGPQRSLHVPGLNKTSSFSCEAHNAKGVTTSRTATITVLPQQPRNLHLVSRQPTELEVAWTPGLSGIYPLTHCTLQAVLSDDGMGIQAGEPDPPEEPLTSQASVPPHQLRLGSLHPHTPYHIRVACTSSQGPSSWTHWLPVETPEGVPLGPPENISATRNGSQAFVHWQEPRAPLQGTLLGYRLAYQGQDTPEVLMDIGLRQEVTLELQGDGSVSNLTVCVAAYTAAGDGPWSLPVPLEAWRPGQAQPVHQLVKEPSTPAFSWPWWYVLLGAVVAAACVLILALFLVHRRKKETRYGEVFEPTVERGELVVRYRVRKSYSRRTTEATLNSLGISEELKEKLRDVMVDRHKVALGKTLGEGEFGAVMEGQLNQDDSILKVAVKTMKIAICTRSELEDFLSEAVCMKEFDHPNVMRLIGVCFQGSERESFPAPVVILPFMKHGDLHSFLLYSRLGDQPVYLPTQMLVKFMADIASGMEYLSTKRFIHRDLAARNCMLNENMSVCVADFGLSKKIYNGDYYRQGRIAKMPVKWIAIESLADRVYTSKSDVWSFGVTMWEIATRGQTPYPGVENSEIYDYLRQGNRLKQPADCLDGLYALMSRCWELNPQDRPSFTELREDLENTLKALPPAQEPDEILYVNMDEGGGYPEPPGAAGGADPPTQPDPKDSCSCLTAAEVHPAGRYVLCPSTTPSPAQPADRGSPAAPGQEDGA
Description: Assay 5: Test for Inhibitory Activities of the Compounds of the Present Invention on the Cell pAxl
H1299 is a non-small cell lung cancer cell.
Test substances: the compounds of the present invention, wherein the structures thereof were as described above.
Test equipment: protein electrophoresis apparatus (manufactured by Bio Rad), transfer unit (manufactured by Bio Rad), exposure unit (manufactured by Tanon), CO2, cell incubator (manufactured by Thermo).
The H1299 cells were inoculated in a 6-well plate (containing 10% FBS 1640 medium, 5×10^5 cells per well), and adherent cells were cultivated at 37° C. in a 5% CO2 condition for 18 hours. The cells were starved overnight. Different concentrations of compounds were added. The final compound concentrations were 1.1, 3.3, 10, and 30 nM, and the final DMSO content was 1‰. The negative control wells contained the medium containing 1‰ DMSO. After incubating at 37° C. in a 5% CO2 condition for 60 minutes, hGAS6 (R&D, final concentration 200 ng/mL) was added to each well. After further incubating for 60 minutes, the cell total protein was extracted for Western Blot and the […] values were calculated using GraphPad 5.0 software. The inhibitory activity of the compound on the cell pAxl was examined.

Rat PK evaluation = format: in vivo; settings: SD rats; for Vz_obs iv (apparent distribution volume) / bioavailability / AUC(0-t) / clearance / half-life: n = 3; for bioavailability / AUC(0-t) / clearance / half-life / Tmax: rat, plasma; for bioavailability: read-out: F % (absolute bioavailability); for clearance: read-out: Cl_obs iv (clearance rate) (converted); for Tmax: n = 3, median, read-out: Tmax po (time to peak plasma concentration)
Description: Assay 2: Rat PK Evaluation for the Compounds of the Present Invention
Animal Administration and Sample Collection:
The test compounds 14, 15, 16, 20, 29, 30, 31, 32, 33, 34, 36, 37, 47 and 48 were dissolved in 5% DMSO+20% (30% solutol)+75% saline to prepare the compound solutions. Each of the compound solutions was intragastrically administered to SD rats at a dose of 5.0 mg/kg. The time points of blood collection were: 15 minutes, 30 minutes, 1 hour, 2 hours, 4 hours, 6 hours, 8 hours, 24 hours, 30 hours, and 48 hours.
The test compounds 38, 39, 40 and 41 were dissolved in 5% NMP+5% Tween-80+90% saline to prepare the compound solutions. Each of the compound solutions was intragastrically administered to SD rats at a dose of 5.0 mg/kg. The time points of blood collection were: 15 minutes, 30 minutes, 1 hour, 2 hours. 4 hours, 6 hours, 8 hours, 24 hours, 30 hours, and 48 hours.
The test compounds 14, 15, 16, 20, 29, 30, 31, 32, 33, 34, 36, 37, 47 and 48 were dissolved in 5% DMSO+20% (30% solutol)+75% saline to prepare the compound solutions. Each of the compound solutions was administered by intravenous bolus injection to SD rats at a dose of 1 mg/kg. The time points of blood collection were: 5 minutes, 15 minutes, 30 minutes, 1 hour, 2 hours, 4 hours, 6 hours, 8 hours, 24 hours, and 48 hours.
The test compounds 38, 39, 40 and 41 were dissolved in 5% NMP+5% Tween-80+90% saline to prepare the compound solutions. Each of the compound solutions was administered by intravenous bolus injection to SD rats at a dose of 1 mg/kg. The time points of blood collection were: 5 minutes, 15 minutes, 30 minutes, 1 hour, 2 hours, 4 hours, 6 hours, 8 hours, 24 hours, and 48 hours.
The animal was fixed. The tail was heated in a water bath pot 10 minutes before each time point. About 100 μL of blood was collected through the tail vein. The blood was collected and placed in an anti-coagulation tube containing EDTA-K2. The blood sample was centrifuged at 8000 rpm for 6 minutes at 4° C. to obtain a plasma sample. The plasma was prepared within 30 minutes after the blood collection. The plasma was stored in a −80° C. refrigerator before testing.
The sample to be tested was taken out from the −80° C. refrigerator, naturally melted at room temperature and vortexed for 5 minutes. 20 μL of plasma sample was accurately pipetted into a 1.5 mL centrifuge tube. 200 μL of an internal standard working solution (a solution of tolbutamide in methanol) having a concentration of 100 ng/mL was added and mixed well. The mixture was vortexed for 5 minutes, and centrifuged at 12000 rpm for 5 minutes. 50 μL of the supernatant was accurately pipetted into a 96-well plate pre-filled with 150 μL/well of water. The plate was vortexed for 5 minutes and mixed well, and then the LC-MS/MS determination and analysis were performed.
The concentration of the test substance was output using Analyst 1.6.3 from AB Company. Parameters such as mean, standard deviation, and coefficient of variation were calculated with Microsoft Excel (direct outputs from Analyst 1.6.3 were not calculated), and the PK parameters were calculated using Pharsight Phoenix 6.1 software NCA (Tmax was the median).

[1] = IV 1 mg/kg, read-out: AUClast iv (area under the drug-time curve from 0 to 48 hours)
[2] = IV 1 mg/kg, read-out: tz1/2 iv (terminal elimination half-life) (converted)
[3] = PO 5 mg/kg, read-out: AUClast po (area under the drug-time curve from 0 to 48 hours)
[4] = PO 5 mg/kg, read-out: tz1/2 po (terminal elimination half-life) (converted)

SMILES	IC50 (H1299 cell pAxl) [nM]	Vz_obs iv (apparent distribution volume) (Rat PK evaluation; IV 1 mg/kg) [L/kg]	bioavailability (Rat PK evaluation; IV 1 mg/kg, PO 5 mg/kg) [%]	AUC(0-t) (Rat PK evaluation; [1]) [ng·h/mL]	clearance (Rat PK evaluation; IV 1 mg/kg) [mL/min/kg]	half-life (Rat PK evaluation; [2]) [h]	AUC(0-t) (Rat PK evaluation; [3]) [ng·h/mL]	half-life (Rat PK evaluation; [4]) [h]	Tmax (Rat PK evaluation; PO 5 mg/kg) [h]
COc1cc2nccc(Oc3ccc(NC(=O)c4nn(C(C)C)cc(-c5ccc(F)cc5)c4=O)nc3)c2cc1OC [Compound 15, N-(5-((6,7-dimethoxyquinolin-4-yl)oxy)pyridin-2-yl)-5-(4-fluorophenyl)-1-isopropyl-4-oxo-1,4-dihydropyridazine-3-carboxamide]	< 1.1	1.23	78.9	18100	0.783	18.5	67400	20.5	–
COc1cc2nccc(Oc3cnc(NC(=O)c4nn(C(C)C)cc(-c5ccc(F)cc5)c4=O)nc3)c2cc1OC [Compound 16, N-(5-((6,7-dimethoxyquinolin-4-yl)oxy)pyrimidine-2-yl)-5-(4-fluorophenyl)-1-isopropyl-4-oxo-1,4-dihydropyridazine-3-carboxamide]	< 1.1	0.12	35.6	48600	0.35	4.13	86400	5.67	1
COc1cc2nccc(Oc3ccc(NC(=O)c4cn(C5CC5)cc(-c5ccc(F)cc5)c4=O)nc3)c2cc1OC [Compound 30, N-(5-((6,7-dimethoxyquinolin-4-yl)oxy)pyridin-2-yl)-1-cyclopropyl-4-oxo-5-para-fluorophenyl-1,4-hydropyridin-3-carboxamide]	< 1.1	0.30	78.7	41400	0.4	8.68	152000	13.4	6
COc1cc2nccc(Oc3ccc(NC(=O)c4cn(C(C)C)cc(-c5ccc(F)cc5)c4=O)nc3)c2cc1OC [Compound 14, N-(5-((6,7-dimethoxyquinolin-4-yl)oxy)pyridin-2-yl)-5-(4-fluorophenyl)-1-isopropyl-4-oxo-1,4-dihydropyridin-3-carboxamide]	< 1.1	0.25	63.2	34900	0.45	6.3	110000	12.1	2
COc1cc2nccc(Oc3cnc(NC(=O)c4cn(C5CC5)cc(-c5ccc(F)cc5)c4=O)nc3)c2cc1OC [Compound 32, 1-cyclopropyl-N-(5-((6,7-dimethoxyquinolin-4-yl)oxy)pyrimidine-2-yl)-5-(4-fluorophenyl)-4-oxo-1,4-dihydropyridin-3-carboxamide]	< 1.1	0.23	75.4	23900	0.75	3.74	90500	5.04	4
COc1cc2nccc(Oc3ncc(NC(=O)c4nn(C(C)C)cc(-c5ccc(F)cc5)c4=O)cn3)c2cc1OC [Compound 34, N-(2-((6,7-dimethoxyquinolin-4-yl)oxy)pyrimidine-5-yl)-5-para-fluorophenyl-1-isopropyl-4-oxo-1,4-dihydropyridazine-3-carboxamide]	< 1.1	0.15	80.4	81000	0.217	7.46	321000	8.31	4
COc1cc2nccc(Oc3cnc(NC(=O)c4nn(C5CC5)cc(-c5ccc(F)cc5)c4=O)nc3)c2cc1OC [Compound 33]	< 1.1	0.146	31.7	55700	0.3	5.47	88800	4.73	2
